From patent US20030065039A1, “Biologically active 1,3-bis-aromatic-prop-2-en-1-ones, 1,3-bis-aromatic-propan-1-ones, and 1,3-bis-aromatic-prop-2-yn-1-ones” (Statens Serum Institute, priority 1997, published 2003)
Values after ≈ are worked out from the molar mass of the structure shown. Like-named read-outs stand apart in the source and are kept apart here.

Experiments:
Format in all cases: cell-based
Helicobacter pylori = assay: Helicobacter species Assay (agar plate, MIC); details: for MIC: 20 strains of H. pylori, agar plate, 72 hours; for No. strains inhibited/No. strains tested: at the MIC of the same line
Experimental: (§1) 20 strains of Helicobacter pylori were used in an agar plate assay. The compounds were incorporated in the agar plates at different concentrations as described in the examples and were then inoculated with different strains of Helicobacter pylori followed by incubation in a microaerophilic atmosphere at 37° C. for 72 hours. The number of colony-forming units (CFU) were counted after the incubation period. The MIC values were determined as the minimal concentration required to inhibit growth of the bacteria.
(§2) Stock solutions were made at a concentration of 1 mg/ml by dissolving 1 mg of each compound in 100 μl DMSO (dimethylsulfoxide) followed by addition of 900 μl of heat-inactivated fetal claf serum (HFCS). These stock solutions were diluted with HFCS to make solutions having the following concentrations: 320 μg/ml, 160 μg/ml, 80 μg/ml, 40 μg/ml and 20 μg/ml. Dilution rows were made with 3 ml aliquots in vials containing the compounds in the following final test concentrations: 16 μg/ml, 8 μg/ml, 4 μg/ml, 2 μg/ml and 1 μg/ml. As control was used DMSO-HFCS containing an amount of DMSO equal to the amount of test compound in the solution with 320 μg/ml compound.
as §1, with “Bacteria: 20” for “20”, “concentrations” for “concentrations as described in the examples”, “and then they” for “and”, “were” for “were then”, “incubation at” for “incubation in a”, “C. in” for “C. for”
as §2, with “concentrations: 2560 μg/ml, 1280 μg/ml, 640 μg/ml,” for “concentrations:”, “160 µg/ml and” for “160 μg/ml,”, “80” for “80 μg/ml, 40 μg/ml and 20”, “concentrations: 128 μg/ml, 64 μg/ml, 32 μg/ml, 12” for “concentrations: 16”, “8” for “8 μg/ml, 4 μg/ml, 2”, “and 4” for “and 1”
Bacteria: 20 strains of Helicobacter pylori were used in an agar plate assay. The same method as described above under Experiment A was employed and MIC values were determined.

Plasmodium falciparum = Plasmodium falciparum Assay; details: 3-H-hypoxanthine incorporation, 48 hours, read-out: Plasmodium IC50 ± SD
How it was run: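 Parasitized erythrocytes (~1% parasitemia, 5×10^8/ml) cultured 48 h in RPMI with test compound, with 3H-hypoxanthine added for the last 24 h. Growth inhibition read as 3H-hypoxanthine incorporation into parasite DNA by liquid scintillation; uninfected and untreated infected cultures run in parallel.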

[1] = system: human embryonic lung (HEL) cells; assay: Cytotoxicity in human embryonic lung (HEL) cells; details: HEL cell growth reduced by 50%; values given as fractions
TNF-α [2] = assay: TNF-α in lysate of stimulated human mononuclear cells (ELISA); details: cells preincubated with compound, stimulated with SPAG or LPS
Experimental: (§3) Therefore, experiments were performed to examine the effect of Licochalcone A and SBC-35ma on secretion of TNF-α from the stimulated cells. These experiments included detection of the cytokines in the cell lysate by ELISA and staining of the intracellular cytokines by using monoclonal antibodies against these cytokines and cytokine receptors.

IL-1ra = assay: Intracellular cytokine staining in stimulated human mononuclear cells; details: 25 μg/ml compound
Experimental: as §3
(§4) Table 3. Effect of Licochalcone A and SBC-35ma on the presence of intracellur cytokines in the human peripheral blood mononuclear cells stimulated either with a malarial exoantigen SPAG (diluted 1:12.5) or bacterial LPS (diluted 1:1000). The cells were preincubated with 25 μg/ml of each of the compounds for 2 hours and then incubated in the presence of antigens at 37° C. overnight. The cells were permeabilized and then fixed in paraformaldehyde Cytokine specific monoclonal antibodies were used for the detection of positive cells for each cytokine. Data are presented as percentages of positive cells for each cytokine.

IL-1α = assay: as above; details: 25 μg/ml compound, 2 hours preincubation
Experimental: as §3, §4

IL-1β = assay: as above; details: 25 μg/ml compound
Experimental: as §3, §4

IL-2 = assay: as above; details: 25 μg/ml compound
Experimental: as §3, §4

IL-4 = assay: as above; details: 25 μg/ml compound
Experimental: as §3, §4

IL-6 = assay: as above; details: 25 μg/ml compound
Experimental: as §3, §4

TNF-α [3] = assay: as above; details: 25 μg/ml compound
Experimental: as §3, §4

[4] = Helicobacter pylori, read-out: MIC

Row | SMILES | MIC (Helicobacter pylori; [4]) [µg/mL] | IC50 (Plasmodium falciparum; Plasmodium falciparum) [µM] | growth of the strains of H. pylori (FIGS. 1 and 2) (Helicobacter pylori) | No. strains inhibited/No. strains tested (Helicobacter pylori) | Cytotoxicity CC50 [1] | intracellular TNF-α in the cell lysate (ELISA) (TNF-α [2]) | percentages of positive cells for IL-1ra (IL-1ra; LPS 1:1000, LPS alone 5.1) [%] | percentages of positive cells for IL-1ra (IL-1ra; SPAG 1:12.5, SPAG alone 6.6) [%] | percentages of positive cells for IL-1α (IL-1α; LPS 1:1000, LPS alone 13) [%] | percentages of positive cells for IL-1α (IL-1α; SPAG 1:12.5, SPAG alone 11) [%] | percentages of positive cells for IL-1β (IL-1β; LPS 1:1000, LPS alone 9.1) [%] | percentages of positive cells for IL-1β (IL-1β; SPAG 1:12.5, SPAG alone 13) [%] | percentages of positive cells for IL-2 (IL-2; LPS 1:1000, LPS alone 2.0) [%] | percentages of positive cells for IL-2 (IL-2; SPAG 1:12.5, SPAG alone 3.1) [%] | percentages of positive cells for IL-4 (IL-4; LPS 1:1000, LPS alone 0) [%] | percentages of positive cells for IL-4 (IL-4; SPAG 1:12.5, SPAG alone 0) [%] | percentages of positive cells for IL-6 (IL-6; LPS 1:1000, LPS alone 4.3) [%] | percentages of positive cells for IL-6 (IL-6; SPAG 1:12.5, SPAG alone 5.6) [%] | percentages of positive cells for TNF-α (TNF-α [3]; LPS 1:1000, LPS alone 0.30) [%] | percentages of positive cells for TNF-α (TNF-α [3]; SPAG 1:12.5, SPAG alone 0.96) [%] | further results
1 | C=CCOc1ccc(C(=O)/C=C/c2cc(OC)cc(OC)c2)cc1 [SBC-35ma, 3,5-dimethoxy-4′-allyloxychalcone] | – | – | – | – | <1/60 | no intracellular TNF-α present | 0.78 | 0.14 | 0 | 0 | 0 | 0 | 0 | 0 | 0 | 0 | 0 | 0 | 0 | 0 | –
2 | C=CC(C)(C)c1cc(/C=C/C(=O)c2ccc(O)cc2)c(OC)cc1O [Licochalcone A] | – | – | inhibited the growth of all the strains | 20/20 | 1/600 | no intracellular TNF-α present | 7.6 | 2.9 | 15 | 9.1 | 12 | 13 | 3.6 | 5.2 | 0 | 0.69 | 6.7 | 6.2 | 0.70 | 1.0 | strains that gave a MIC value equal to or less than 16 μg/ml (Helicobacter pylori; 20 strains): 20 out of 20; MIC (Helicobacter pylori): 16 µg/mL (≈ 47.3 µM); IC50 (Plasmodium falciparum): 5.6 µM

Second part, led by results:

Row | MIC (Helicobacter pylori; [4]) [µg/mL] | IC50 (Plasmodium falciparum; Plasmodium falciparum) [µM] | SMILES | growth of the strains of H. pylori (FIGS. 1 and 2) (Helicobacter pylori) | No. strains inhibited/No. strains tested (Helicobacter pylori) | Cytotoxicity CC50 [1] | intracellular TNF-α in the cell lysate (ELISA) (TNF-α [2]) | percentages of positive cells for IL-1ra (IL-1ra; LPS 1:1000, LPS alone 5.1) [%] | percentages of positive cells for IL-1ra (IL-1ra; SPAG 1:12.5, SPAG alone 6.6) [%] | percentages of positive cells for IL-1α (IL-1α; LPS 1:1000, LPS alone 13) [%] | percentages of positive cells for IL-1α (IL-1α; SPAG 1:12.5, SPAG alone 11) [%] | percentages of positive cells for IL-1β (IL-1β; LPS 1:1000, LPS alone 9.1) [%] | percentages of positive cells for IL-1β (IL-1β; SPAG 1:12.5, SPAG alone 13) [%] | percentages of positive cells for IL-2 (IL-2; LPS 1:1000, LPS alone 2.0) [%] | percentages of positive cells for IL-2 (IL-2; SPAG 1:12.5, SPAG alone 3.1) [%] | percentages of positive cells for IL-4 (IL-4; LPS 1:1000, LPS alone 0) [%] | percentages of positive cells for IL-4 (IL-4; SPAG 1:12.5, SPAG alone 0) [%] | percentages of positive cells for IL-6 (IL-6; LPS 1:1000, LPS alone 4.3) [%] | percentages of positive cells for IL-6 (IL-6; SPAG 1:12.5, SPAG alone 5.6) [%] | percentages of positive cells for TNF-α (TNF-α [3]; LPS 1:1000, LPS alone 0.30) [%] | percentages of positive cells for TNF-α (TNF-α [3]; SPAG 1:12.5, SPAG alone 0.96) [%] | further results
3 | 64 (≈ 183 µM) | 15 | COc1cc(/C=C/C(=O)c2ccc(C3CCCCC3)cc2)cc(OC)c1 [PH104, 3,5-dimethoxy-4′-cyclohexylchalcone] | inhibited the growth of all the strains | 15/20 | – | – | – | – | – | – | – | – | – | – | – | – | – | – | – | – | –
4 | 32 (≈ 112 µM) | 8.7 | COc1cc(/C=C/C(=O)c2ccccc2F)cc(OC)c1 [PH135, 2′-fluoro-3,5-dimethoxychalcone] | inhibited the growth of all the strains | 20/20 | – | – | – | – | – | – | – | – | – | – | – | – | – | – | – | – | –
5 | 16 (≈ 51.1 µM) | – | COc1cc(/C=C/C(=O)c2ccc([N+](=O)[O-])cc2)cc(OC)c1 [PH105, 4′-nitro-3,5-dimethoxychalcone] | – | 12/20 | – | – | – | – | – | – | – | – | – | – | – | – | – | – | – | – | strains of Helicobacter pylori inhibited (Helicobacter pylori; at a concentration of 16 μg/ml, 20 strains): 12 out of 20
6 | 32 (≈ 112 µM) | 8.1 | COc1cc(/C=C/C(=O)c2cccc(F)c2)cc(OC)c1 [PH136, 3′-fluoro-3,5-dimethoxychalcone] | inhibited the growth of all the strains | 15/20 | – | – | – | – | – | – | – | – | – | – | – | – | – | – | – | – | –
